Patent publication US12529692B2, “Live cell imaging dynamic BH3 profiling” (Dana-Farber Cancer Institute, Inc., priority 2019, dated 2026)

How the values were obtained:
Format in all cases: cell-based
[1] = system: MMTV-PyMT-T1 cells; assay: LCI-DBP on MMTV breast cancer PDX model; settings: MMTV-PyMT-T1 cells treated overnight, then BIM BH3 peptide 10 μM final; imaged 0-120 minutes; compared to undrugged (DMSO) cells; FIG. 3A
Method: The plates with cells were stained with 10 μL per well of LCI-Staining Solution for 20 minutes at 37° C. in a 3307 Steri-Cult Incubator, Class 100 HEP. An EL406™ Combination Microplate Washer Dispenser was then used to aspirate the volume in the wells to 10 μL. The plates with cells were washed three times with LCI-Wash buffer to a final residual volume of 10 μL per well using the EL406™ Combination Microplate Washer Dispenser. The plate was then placed on an ImageXpress® Micro 4 High Content Screening System with the required settings, taking an image every two minutes. After two images, 10 μL of the selected LCI-DBP BIM peptide buffer(s) were added to the wells. The plate was then imaged for at most 2 hours.
As depicted, cells are plated on collagen-coated plates and allowed to incubate for 16-24 hours in the presence of a test agent. […] After all images are acquired, image analysis software is used to quantify differences in TMRE release between drug-treated cells and vehicle-treated cells. […]
Cells were imaged by live single-cell imaging at 0 minutes, 42 minutes, 50 minutes, 66 minutes, and 120 minutes following BH3 peptide addition (FIG. 3A). Nuclear staining was detected as a blue emission from Hoechst 33342, and mitochondrial transmembrane potential staining was detected as a […] emission from TMRE.

[2] = system: Pancreatic 8902 (Panc8902) cell line; assay: Live cell imaging dynamic BH3 profiling (LCI-DBP) on Pancreatic 8902 cell line
Method: Cells were imaged by live single-cell imaging at 18 minutes, 40 minutes, 48 minutes, 58 minutes, and 120 minutes following BH3 peptide addition (FIG. 2A). Nuclear staining was detected as a blue emission from Hoechst 33342, and mitochondrial transmembrane potential staining was detected as a green emission from TMRE. […]

[3] = system: cells of a sample; assay: LCI-DBP example workflow (FIG. 1A), delta priming compared across treatments; settings: bar graph of FIG. 1A comparing different treatments; cells not specified
Method: An example workflow of live cell imaging dynamic BH3 profiling (LCI-DBP) is depicted in FIG. 1A. As shown, in some embodiments, cells are plated in a well (e.g., a well of a multi-well plate). In some embodiments, the plated cells are contacted with a test agent or a control solution (e.g., a vehicle solution used with the test agent, such as water, buffer, or a solvent), and the test agent is incubated with the cells for a treatment period. In some embodiments, the treated cells are stained with desired markers for imaging (e.g., nuclear and/or mitochondrial markers). In some embodiments, the cells are then treated with a reagent for measuring MOMP, such as a potentiometric dye. In some embodiments, the stained and treated cells are then contacted with a BH3 peptide. Cells treated with BH3 peptide are imaged by live cell imaging to detect the reagent for measuring MOMP. […] In some embodiments, the loss in emission from the potentiometric dye is evaluated for cells treated with the test agent as compared with cells that were not treated with the test agent. In some embodiments, the difference in emission between treated and untreated cells is determined to obtain a parameter referred to herein as delta priming. Image analysis software, or any suitable algorithm known to one skilled in the art, may be used to determine the difference in emission, or it may be determined manually. […]

`CO[C@H]1/C=C\C=C(/C)C(=O)NC2=CC(=O)C(NCCN(C)C)=C(C[C@@H](C)C[C@H](OC)[C@H](O)[C@@H](C)/C=C(\C)[C@@H]1OC(N)=O)C2=O` [17-DMAG] was tested, and the “loss in mitochondrial potential, detected as loss in TMRE emission over time” value [1] was “observable accelerated loss in mitochondrial potential”.
With `Cc1c(-c2ccc(N3CCc4cccc(C(=O)Nc5nc6ccccc6s5)c4C3)nc2C(=O)O)cnn1CC12CC3CC(CC(C3)C1)C2` [A1331852] the “loss in mitochondrial potential, detected as loss in TMRE emission over time” value ([2]; Panc8902 cells treated overnight, then BIM BH3 peptide 10 μM final, imaged 18-120 minutes, compared to undrugged (DMSO) cells, FIG. 2A) was “observable accelerated loss in mitochondrial potential”.
With `CC1(C)CCC(c2ccc(Cl)cc2)=C(CN2CCN(c3ccc(C(=O)NS(=O)(=O)c4ccc(N[C@H](CCN5CCOCC5)CSc5ccccc5)c(S(=O)(=O)C(F)(F)F)c4)cc3)CC2)C1` [Navitoclax] the delta priming [3] was “highest value for delta priming” and the “half-time of TMRE loss in single cells (measurement of apoptotic priming)” value ([2]; Panc8902 cells, drug 1 μM overnight, BIM BH3 peptide 1 μM final, monitored over 120 minutes, versus DMSO, FIG. 5C) was “decrease in the half-time of TMRE loss”.
